Experimental data taken from PubChem BioAssay (NCI).
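1) Cells in 96-well plates. 2) Compound, 48 h, 5 concentrations. 3) Linear interpolation between surrounding doses. 4) Unreached endpoint = highest concentration. TGI marks complete inhibition of growth.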 Where a SMILES comes first, the peptide text is derived from it. [ ]: non-standard residue; d: D form. The star is where a group is joined. NMeF = CN[CH](Cc1ccccc1)C(=O)O; NMeV = CN[CH](C(=O)O)C(C)C; Boc = CC(C)(C)OC(=O)*; OBn = c1ccc(CO*)cc1

Legend:
Assay in all cases: NCI anticancer screen, dose series, 48 h
[1] = tested on: A549 NSCLC
[2] = tested on: ACHN renal
[3] = tested on: IGROV1 ovarian
[4] = tested on: KM12 colon
[5] = tested on: NCI-H23 lung
[6] = tested on: NCI-H460 lung
[7] = tested on: NCI/ADR-RES ovarian
[8] = tested on: TK-10 renal
[9] = tested on: U251 CNS
[10] = tested on: UACC-257 melanoma
[11] = tested on: A498 renal
[12] = tested on: COLO 205 colon

SMILES	TGI [1]	TGI [2]	TGI [3]	TGI [4]	TGI [5]	TGI [6]	TGI [7]	TGI [8]	TGI [9]	TGI [10]	TGI [11]	TGI [12]
O=c1[nH]c(=O)n(C2CC(O)C(CO)O2)cc1NN=NCc1ccccc1 (stereo unspecified)	> 100 µM	> 100 µM	> 100 µM	> 100 µM	> 100 µM	> 100 µM	> 100 µM	> 100 µM	> 100 µM	> 100 µM	–	–
CC(=O)OCC1OC(OCC2OC(N3C(=S)N[C@H]([C@@H](O)[C@H](O)[C@H](O)CO)[C@H]3O)C(OC(C)=O)C(OC(C)=O)C2OC(C)=O)C(OC(C)=O)C(OC(C)=O)C1OC(C)=O (stereo partly specified)	> 100 µM	> 100 µM	–	> 100 µM	> 100 µM	> 100 µM	> 100 µM	> 100 µM	> 100 µM	–	> 100 µM	> 100 µM
CC(=O)O[C@H]1CC[C@@]2(C)C(=CC[C@@H]3[C@@H]2CC[C@]2(C)c4nc(N)c(C#N)cc4C[C@@H]32)C1	> 100 µM	> 100 µM	> 100 µM	> 100 µM	> 100 µM	> 100 µM	–	> 100 µM	> 100 µM	> 100 µM	> 100 µM	> 100 µM
COc1ccc(N2CCN(c3ccc4c(c3)NCC(=O)N4)CC2)cc1	> 100 µM	> 100 µM	> 100 µM	49 µM	> 100 µM	> 100 µM	68.5 µM	> 100 µM	68.6 µM	> 100 µM	–	> 100 µM
CCOC(OCC)C(CCc1ccccc1)c1c(N)nc(N)[nH]c1=O (stereo unspecified)	> 100 µM	–	> 100 µM	> 100 µM	> 100 µM	> 100 µM	> 100 µM	> 100 µM	> 100 µM	> 100 µM	> 100 µM	49.3 µM
O=C(c1ccc(Cl)cc1)N(Cc1cccnc1)C(=S)N(Cc1cccnc1)C(=O)c1ccc(Cl)cc1	> 100 µM	> 100 µM	–	> 100 µM	> 100 µM	> 100 µM	> 100 µM	> 100 µM	53.6 µM	> 100 µM	91.5 µM	43.4 µM
CC1=CC(=O)c2cccc(NC3=NCCO3)c21	> 100 µM	> 100 µM	> 100 µM	90.5 µM	> 100 µM	> 100 µM	82.5 µM	> 100 µM	> 100 µM	–	> 100 µM	> 100 µM
[N-]=[N+]=C1CNC(=O)NC1=O	> 100 µM	> 100 µM	> 100 µM	> 100 µM	> 100 µM	> 100 µM	> 100 µM	> 100 µM	> 100 µM	> 100 µM	–	> 100 µM
N=C(N)n1[nH]c2c(c1=O)CCC2	> 100 µM	> 100 µM	> 100 µM	–	> 100 µM	> 100 µM	> 100 µM	> 100 µM	> 100 µM	> 100 µM	–	> 100 µM
CC(C)C(NC(=O)OC(C)(C)C)C(=O)N(C)C(Cc1ccccc1)C(=O)N(C)C(C(=O)N(C)C(C(=O)OCc1ccccc1)C(C)C)C(C)C (stereo unspecified) (Boc-V[NMeF][NMeV][NMeV]-OBn; configuration not given here)	> 100 µM	> 100 µM	> 100 µM	> 100 µM	> 100 µM	> 100 µM	–	> 100 µM	> 100 µM	> 100 µM	–	> 100 µM
Cc1ccnc(NC(=S)Nc2ccccc2Cl)c1	> 100 µM	–	> 100 µM	> 100 µM	–	> 100 µM	> 100 µM	> 100 µM	> 100 µM	> 100 µM	> 100 µM	> 100 µM
O=C1c2ccccc2C(=O)N1C(=S)c1ccccc1	> 100 µM	> 100 µM	> 100 µM	> 100 µM	> 100 µM	> 100 µM	> 100 µM	> 100 µM	> 100 µM	> 100 µM	–	> 100 µM
Clc1ccc(OCC2NC3C=CC32)cn1 (stereo unspecified)	> 100 µM	> 100 µM	> 100 µM	> 100 µM	> 100 µM	> 100 µM	> 100 µM	> 100 µM	> 100 µM	> 100 µM	–	> 100 µM
O=c1c2cc(-c3ccccc3)cnc2sn1-c1ccc([N+](=O)[O-])cc1	> 100 µM	> 100 µM	> 100 µM	> 100 µM	> 100 µM	> 100 µM	> 100 µM	–	95.1 µM	> 100 µM	> 100 µM	> 100 µM
ClCc1c(-c2ccccc2)nn(-c2ccccc2)c1CCl	37.3 µM	–	42.9 µM	32.7 µM	34.7 µM	–	> 100 µM	29.2 µM	27.6 µM	34.1 µM	–	25.5 µM
c1ccc([C@H]2CN3CCSC3=N2)cc1	> 100 µM	> 100 µM	> 100 µM	> 100 µM	> 100 µM	> 100 µM	> 100 µM	–	> 100 µM	> 100 µM	> 100 µM	> 100 µM
C=C(C)CC1=C(C(=S)NCCO[Si](C)(C)C(C)(C)C)C(OCC)(OCC)C1=O	36.9 µM	33.8 µM	31.3 µM	45.9 µM	40.5 µM	–	> 100 µM	34.8 µM	63 µM	32.1 µM	40.5 µM	75 µM
Sc1nnc(-c2ccccc2Nc2ccccc2-c2nnc(S)n2-c2ccccc2)n1-c1ccccc1	–	> 100 µM	42.2 µM	> 100 µM	> 100 µM	> 100 µM	> 100 µM	> 100 µM	> 100 µM	> 100 µM	–	> 100 µM
CCN(CC)C(=O)c1c(N2CCOCC2)cc(N(CC)CC)oc1=O	> 100 µM	> 100 µM	> 100 µM	> 100 µM	> 100 µM	> 100 µM	–	> 100 µM	> 100 µM	> 100 µM	> 100 µM	> 100 µM
